Experimental data: ChEMBL document CHEMBL2331430, “Absolute configuration and conformational analysis of brevipolides, bioactive 5,6-dihydro-α-pyrones from Hyptis brevipes” (J Nat Prod, 2013)
In brackets after ≈: the same amount, converted by molar mass.

Key:
HeLa = assay: Cytotoxicity against human HeLa cells after 72 hrs by SRB assay; conditions: read-out: ED50 (the source's name)
MCF7 = assay: Cytotoxicity against human MCF7 cells after 72 hrs by SRB assay; conditions: MCF7, 72 h, read-out: ED50 (the source's name)
[1] = system: Hep-2 (human laryngeal carcinoma); assay: Cytotoxicity against human Hep-2 cells after 72 hrs by SRB assay; conditions: Hep-2, 72 h, read-out: ED50 (the source's name)
HCT-15 = assay: Cytotoxicity against human HCT15 cells after 72 hrs by SRB assay; conditions: HCT-15, 72 h, read-out: ED50 (the source's name)
PC-3 = assay: Cytotoxicity against human PC3 cells after 72 hrs by SRB assay; conditions: PC-3, 72 h, read-out: ED50 (the source's name)
KB = assay: Cytotoxicity against human KB cells after 72 hrs by SRB assay

COc1ccc(/C=C\C(=O)O[C@@H](C)C(=O)[C@H]2C[C@@H]2[C@H](O)[C@H]2CC=CC(=O)O2)cc1 [BREVIPOLIDE I]
EC50 (HeLa): 0.3 µg/mL (≈ 0.749 µM)
EC50 (MCF7): 0.3 µg/mL (≈ 0.749 µM)
EC50 [1]: 0.3 µg/mL (≈ 0.749 µM)
EC50 (HCT-15): 0.3 µg/mL (≈ 0.749 µM)
EC50 (PC-3): 0.3 µg/mL (≈ 0.749 µM)
IC50 (KB): 1.9 µg/mL (≈ 4.74 µM)

C[C@H](OC(=O)/C=C/c1ccc(O)cc1)C(=O)[C@H]1C[C@@H]1[C@H](O)[C@H]1CC=CC(=O)O1 [BREVIPOLIDE G]
EC50 (HeLa): 0.3 µg/mL (≈ 0.776 µM)
EC50 (MCF7): 0.3 µg/mL (≈ 0.776 µM)
EC50 [1]: 0.3 µg/mL (≈ 0.776 µM)
EC50 (HCT-15): 0.3 µg/mL (≈ 0.776 µM)
EC50 (PC-3): 0.3 µg/mL (≈ 0.776 µM)
IC50 (KB): 0.3 µg/mL (≈ 0.776 µM)

COc1ccc(/C=C/C(=O)O[C@@H](C)C(=O)[C@H]2C[C@@H]2[C@H](O)[C@H]2CC=CC(=O)O2)cc1O [BREVIPOLIDE J]
EC50 (HeLa): 0.3 µg/mL (≈ 0.72 µM)
EC50 (MCF7): 0.3 µg/mL (≈ 0.72 µM)
EC50 [1]: 0.3 µg/mL (≈ 0.72 µM)
EC50 (HCT-15): 0.3 µg/mL (≈ 0.72 µM)
EC50 (PC-3): 0.3 µg/mL (≈ 0.72 µM)
IC50 (KB): 1.2 µg/mL (≈ 2.88 µM)

COc1ccc(/C=C/C(=O)O[C@@H](C)C(=O)[C@H]2C[C@@H]2[C@H](O)[C@H]2CC=CC(=O)O2)cc1 [BREVIPOLIDE H]
EC50 (HeLa): 0.3 µg/mL (≈ 0.749 µM)
EC50 (MCF7): 0.3 µg/mL (≈ 0.749 µM)
EC50 [1]: 0.3 µg/mL (≈ 0.749 µM)
EC50 (HCT-15): 0.3 µg/mL (≈ 0.749 µM)
EC50 (PC-3): 0.3 µg/mL (≈ 0.749 µM)
IC50 (KB): 2 µg/mL (≈ 4.99 µM)
